Results reported in US20250205259A1, “CLASS OF 7-((FIVE-MEMBERED HETEROCYCLIC)METHYL)-8-CARBOXYLIC ACID-BENZO CYCLIC BORATE DERIVATIVES AND USES THEREOF” (priority 2022, published 2025).
Where two headings read alike, the source gives them in different places.

How the values were obtained:
Format in all cases: biochemical
NDM-1 = NDM-1 (Klebsiella pneumoniae, UniProt C7C422); experiment: Inhibitory activity on MBL, fluorescent substrate FC-5
NDM-5 = NDM-5 (Klebsiella pneumoniae, UniProt C7C422, M154L/V88L); experiment: as above
IMP-1 = IMP-1 (Serratia marcescens, UniProt P52699); experiment: as above
VIM-1 = VIM-1 (Pseudomonas aeruginosa, UniProt A0A0F7KYQ8); experiment: as above
VIM-2 = VIM-2 (Escherichia coli, UniProt Q5U7L7); experiment: as above
KPC-2 = KPC-2 (Klebsiella pneumoniae, UniProt Q9F663); experiment: Inhibitory activity on SBL, fluorescent substrate FC-5; conditions: for IC50: read-out: Inhibitory activity on SBL KPC-2 (IC50 class); for inhibitory activity on KPC-2 compared to avibactam: comparison in words
TEM-1 = TEM-1 (Escherichia coli, UniProt P62593); experiment: as above; conditions: for IC50: read-out: Inhibitory activity on SBL TEM-1 (IC50 class); for inhibitory activity on TEM-1 compared to avibactam: comparison in words
CTX-M-14 = CTX-M-14 (Escherichia coli, UniProt Q9L5C7); experiment: as above; conditions: for IC50: read-out: Inhibitory activity on SBL CTX-M-14 (IC50 class); for inhibitory activity on CTX-M-14 compared to avibactam: comparison in words
OXA-48 = OXA-48 (Klebsiella pneumoniae, UniProt Q6XEC0); experiment: as above; conditions: for IC50: read-out: Inhibitory activity on SBL OXA-48 (IC50 class); for inhibitory activity on OXA-48 compared to avibactam: comparison in words
[1] = read-out: Inhibitory activity on MBL NDM-1 (IC50 class)
[2] = read-out: Inhibitory activity on MBL NDM-5 (IC50 class)
[3] = read-out: Inhibitory activity on MBL IMP-1 (IC50 class)
[4] = read-out: Inhibitory activity on MBL VIM-1 (IC50 class)
[5] = read-out: Inhibitory activity on MBL VIM-2 (IC50 class)
[6] = read-out: inhibitory activity at a nanomolar-level on NDM-1
[7] = read-out: inhibitory activity at a nanomolar-level on NDM-5
[8] = VIM-1 and/or VIM-2, read-out: inhibitory activity at a nanomolar-level on VIM-1 and/or VIM-2
[9] = IMP-1 and/or IMP-4, read-out: inhibitory activity at a nanomolar-level on IMP-1 and/or IMP-4

Chain of IMP-1 (P52699 19-246 limits assumed): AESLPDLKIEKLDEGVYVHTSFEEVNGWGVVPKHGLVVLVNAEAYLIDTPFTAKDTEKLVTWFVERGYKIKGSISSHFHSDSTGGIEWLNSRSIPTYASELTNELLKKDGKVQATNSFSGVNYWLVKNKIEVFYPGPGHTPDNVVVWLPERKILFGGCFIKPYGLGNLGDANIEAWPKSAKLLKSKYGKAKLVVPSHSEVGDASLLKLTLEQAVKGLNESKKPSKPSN
Chain of CTX-M-14 (Q9L5C7 entry or part of it): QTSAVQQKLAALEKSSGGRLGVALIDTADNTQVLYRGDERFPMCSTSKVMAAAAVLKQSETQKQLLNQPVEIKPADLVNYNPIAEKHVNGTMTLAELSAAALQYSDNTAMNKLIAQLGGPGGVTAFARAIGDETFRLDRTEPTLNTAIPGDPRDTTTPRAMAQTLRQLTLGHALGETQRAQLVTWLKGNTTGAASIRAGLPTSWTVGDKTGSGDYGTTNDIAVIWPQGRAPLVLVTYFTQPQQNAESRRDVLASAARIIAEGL
Chain of NDM-1 (C7C422 29-270 limits assumed): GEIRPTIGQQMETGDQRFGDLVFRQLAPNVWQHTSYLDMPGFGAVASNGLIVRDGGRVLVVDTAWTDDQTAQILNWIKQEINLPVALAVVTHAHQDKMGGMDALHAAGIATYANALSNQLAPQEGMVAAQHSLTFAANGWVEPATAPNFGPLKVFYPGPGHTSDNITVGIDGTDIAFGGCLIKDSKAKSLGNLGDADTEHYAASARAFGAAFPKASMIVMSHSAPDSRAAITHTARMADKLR
Chain of KPC-2 (Q9F663 25-293 limits assumed): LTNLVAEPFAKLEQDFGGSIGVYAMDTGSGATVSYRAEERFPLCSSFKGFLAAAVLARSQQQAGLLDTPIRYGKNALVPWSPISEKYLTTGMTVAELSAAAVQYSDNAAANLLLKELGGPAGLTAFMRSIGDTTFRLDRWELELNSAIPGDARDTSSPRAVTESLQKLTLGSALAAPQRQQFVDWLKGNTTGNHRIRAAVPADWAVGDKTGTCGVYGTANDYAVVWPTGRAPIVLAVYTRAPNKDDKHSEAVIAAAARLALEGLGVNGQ
Chain of NDM-5 (C7C422 29-270 V88L/M154L): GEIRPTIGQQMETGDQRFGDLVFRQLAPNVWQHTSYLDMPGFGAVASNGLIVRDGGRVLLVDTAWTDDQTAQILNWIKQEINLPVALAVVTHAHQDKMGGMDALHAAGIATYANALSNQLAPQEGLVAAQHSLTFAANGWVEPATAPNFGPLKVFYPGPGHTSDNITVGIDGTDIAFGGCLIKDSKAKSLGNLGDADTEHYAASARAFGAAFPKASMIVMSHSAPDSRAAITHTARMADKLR
Chain of TEM-1 (P62593 24-286 limits assumed): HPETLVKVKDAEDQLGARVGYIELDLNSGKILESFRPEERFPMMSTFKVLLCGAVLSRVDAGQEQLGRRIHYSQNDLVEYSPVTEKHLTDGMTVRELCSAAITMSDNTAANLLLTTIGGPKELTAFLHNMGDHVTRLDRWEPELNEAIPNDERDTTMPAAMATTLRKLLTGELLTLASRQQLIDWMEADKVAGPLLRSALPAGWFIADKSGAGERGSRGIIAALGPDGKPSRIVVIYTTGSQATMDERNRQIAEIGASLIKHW
Chain of OXA-48 (Q6XEC0 23-265 limits assumed): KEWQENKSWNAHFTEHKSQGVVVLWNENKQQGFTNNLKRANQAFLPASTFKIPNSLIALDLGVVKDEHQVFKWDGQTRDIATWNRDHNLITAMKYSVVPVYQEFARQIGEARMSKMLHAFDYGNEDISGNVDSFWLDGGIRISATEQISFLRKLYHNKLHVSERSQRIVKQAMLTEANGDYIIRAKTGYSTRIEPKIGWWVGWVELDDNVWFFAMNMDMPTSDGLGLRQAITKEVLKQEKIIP

Row | Structure (SMILES) | IC50 (NDM-1; [1]) | IC50 (NDM-5; [2]) | IC50 (IMP-1; [3]) | IC50 (VIM-1; [4]) | IC50 (VIM-2; [5]) | IC50 (KPC-2) | IC50 (TEM-1) | IC50 (CTX-M-14) | IC50 (OXA-48) | IC50 (NDM-1; [6]) | IC50 (NDM-5; [7]) | IC50 (VIM-1; [8]) | IC50 (IMP-1; [9]) | inhibitory activity on KPC-2 compared to avibactam (KPC-2) | inhibitory activity on TEM-1 compared to avibactam (TEM-1) | inhibitory activity on CTX-M-14 compared to avibactam (CTX-M-14) | inhibitory activity on OXA-48 compared to avibactam (OXA-48) | IC50 (VIM-2; read-out: inhibitory activity on VIM-2)
1 | CC(N)c1cnn(Cc2ccc3c(c2C(=O)O)OB(O)CC3)c1 (stereo not shown) [Compound 39] | 1 to 100 µM | 1 to 100 µM | 1 to 100 µM | 1 to 100 µM | 1 to 100 µM | < 0.01 µM | 0.01 to 1 µM | 0.01 to 1 µM | 0.01 to 1 µM | – | – | – | – | – | – | – | – | –
2 | N[C@H]1CC(=O)N(Cc2ccc3c(c2C(=O)O)OB(O)CC3)C1 [Compound 45] | 1 to 100 µM | 1 to 100 µM | 1 to 100 µM | 1 to 100 µM | 1 to 100 µM | 0.01 to 1 µM | 0.01 to 1 µM | 0.01 to 1 µM | 0.01 to 1 µM | – | – | – | – | – | – | – | – | –
3 | CC(C)(N)C#Cc1cnn(Cc2ccc3c(c2C(=O)O)OB(O)CC3)c1 [Compound 46] | 1 to 100 µM | 0.01 to 1 µM | 1 to 100 µM | 1 to 100 µM | 0.01 to 1 µM | < 0.01 µM | 0.01 to 1 µM | < 0.01 µM | 0.01 to 1 µM | – | – | – | – | – | – | – | – | –
4 | O=C(O)c1c(Cn2cc(C3CNC3)nn2)ccc2c1OB(O)CC2 [Compound 47] | 0.01 to 1 µM | 1 to 100 µM | 1 to 100 µM | 1 to 100 µM | 1 to 100 µM | 0.01 to 1 µM | 0.01 to 1 µM | 0.01 to 1 µM | 0.01 to 1 µM | < 1 µM | < 1 µM | – | – | – | – | – | – | –
5 | O=C(O)c1c(Cn2cc3c(n2)CNC3)ccc2c1OB(O)C=C2 [Compound 52] | 1 to 100 µM | 1 to 100 µM | 1 to 100 µM | 1 to 100 µM | 1 to 100 µM | 1 to 100 µM | 1 to 100 µM | 1 to 100 µM | 1 to 100 µM | – | – | – | – | – | – | – | – | –
6 | O=C(O)c1c(Cn2cc3c(n2)CNC3)ccc2c1OB(O)CC2 [Compound 56] | 0.01 to 1 µM | 0.01 to 1 µM | 1 to 100 µM | 0.01 to 1 µM | 0.01 to 1 µM | < 0.01 µM | < 0.01 µM | 0.01 to 1 µM | < 0.01 µM | < 1 µM | < 1 µM | < 1 µM | – | – | – | – | – | –
7 | Nc1ccc(-c2cn(Cc3ccc4c(c3C(=O)O)OB(O)CC4)nn2)cc1 [Compound 59] | 0.01 to 1 µM | 0.01 to 1 µM | 0.01 to 1 µM | 0.01 to 1 µM | 0.01 to 1 µM | < 0.01 µM | < 0.01 µM | < 0.01 µM | < 0.01 µM | < 1 µM | < 1 µM | < 1 µM | < 1 µM | better or comparable | better or comparable | better or comparable | better or comparable | –
8 | Nc1ccc(-c2cn(Cc3ccc4c(c3C(=O)O)OB(O)CC4)nn2)cn1 [Compound 60] | 0.01 to 1 µM | 0.01 to 1 µM | 0.01 to 1 µM | 0.01 to 1 µM | 0.01 to 1 µM | < 0.01 µM | 0.01 to 1 µM | 0.01 to 1 µM | < 0.01 µM | < 1 µM | < 1 µM | < 1 µM | < 1 µM | better or comparable | better or comparable | better or comparable | better or comparable | –
9 | Nc1ncc(-c2cn(Cc3ccc4c(c3C(=O)O)OB(O)CC4)nn2)cn1 [Compound 61] | 0.01 to 1 µM | 0.01 to 1 µM | 0.01 to 1 µM | 0.01 to 1 µM | 0.01 to 1 µM | < 0.01 µM | 0.01 to 1 µM | 0.01 to 1 µM | < 0.01 µM | < 1 µM | < 1 µM | < 1 µM | < 1 µM | better or comparable | better or comparable | better or comparable | better or comparable | –
10 | NS(=O)(=O)c1ccc(-c2cn(Cc3ccc4c(c3C(=O)O)OB(O)CC4)nn2)cc1 [Compound 62] | 0.01 to 1 µM | 0.01 to 1 µM | 0.01 to 1 µM | 0.01 to 1 µM | 0.01 to 1 µM | < 0.01 µM | 0.01 to 1 µM | < 0.01 µM | < 0.01 µM | < 1 µM | < 1 µM | < 1 µM | < 1 µM | better or comparable | better or comparable | better or comparable | better or comparable | < 0.01 µM
11 | NCc1ccc(-c2cn(Cc3ccc4c(c3C(=O)O)OB(O)CC4)nn2)cc1 [Compound 63] | 0.01 to 1 µM | 0.01 to 1 µM | 0.01 to 1 µM | 0.01 to 1 µM | 0.01 to 1 µM | < 0.01 µM | 0.01 to 1 µM | 0.01 to 1 µM | < 0.01 µM | < 1 µM | < 1 µM | < 1 µM | < 1 µM | better or comparable | better or comparable | better or comparable | better or comparable | –
12 | NCc1cnn(Cc2ccc3c(c2C(=O)O)OB(O)[C@@H](Sc2nncs2)C3)c1 [Compound 68] | 0.01 to 1 µM | 1 to 100 µM | 1 to 100 µM | 1 to 100 µM | 0.01 to 1 µM | 1 to 100 µM | 1 to 100 µM | 1 to 100 µM | 1 to 100 µM | – | – | – | – | – | – | – | – | –
13 | CO[C@H]1Cc2ccc(Cn3cc(CN)cn3)c(C(=O)O)c2OB1O [Compound 69] | 0.01 to 1 µM | 1 to 100 µM | 1 to 100 µM | 1 to 100 µM | 0.01 to 1 µM | 1 to 100 µM | 1 to 100 µM | 1 to 100 µM | 1 to 100 µM | – | – | – | – | – | – | – | – | –
14 | NC1CN(Cc2cnn(Cc3ccc4c(c3C(=O)O)OB(O)CC4)c2)C1 [Compound 75] | 1 to 100 µM | > 100 µM | > 100 µM | 1 to 100 µM | > 100 µM | 0.01 to 1 µM | 1 to 100 µM | 1 to 100 µM | 1 to 100 µM | – | – | – | – | – | – | – | – | –
